Experimental data from patent US10131652B2, “Pyrimidinyloxy benzene derivatives as herbicides” (E. I. DU PONT DE NEMOURS AND COMPANY, priority 2014, dated 2018).
Read-outs that look alike come from different tables or passages of the source.

Key:
Assay in all cases: Test E pre-/postemergence plant response
Assay type in all cases: in vivo
[1] = test system: Italian ryegrass (Lolium multiflorum); settings: scale 0 to 100, read-out: Plant response rating, Ryegrass, Italian; for pest or weed control at 16 g/ha: 16 g ai/ha; for pest or weed control at 31 g/ha: 31 g ai/ha; for pest or weed control at 62 g/ha: 62 g ai/ha; for pest or weed control at 125 g/ha: 125 g ai/ha
In short: (§1)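 Pre-emergence: seeds sown in silt loam soil and sprayed with test chemicals in a non-phytotoxic solvent/surfactant mix. Post-emergence: plants at 2–18 cm (1- to 4-leaf stage) in peat/vermiculite medium treated with the same formulation. Visual rating versus controls after 7–21 days, 0 (no effect) to 100 (complete control).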

[2] = test system: lambsquarters (Chenopodium album); settings: scale 0 to 100, read-out: Plant response rating, Lambsquarters; for pest or weed control at 16 g/ha: 16 g ai/ha; for pest or weed control at 31 g/ha: 31 g ai/ha; for pest or weed control at 62 g/ha: 62 g ai/ha; for pest or weed control at 125 g/ha: 125 g ai/ha
In short: as §1

[3] = test system: winter barley (Hordeum vulgare); settings: scale 0 to 100, read-out: Plant response rating, Barley, Winter; for plant injury at 16 g/ha: 16 g ai/ha; for plant injury at 31 g/ha: 31 g ai/ha; for plant injury at 62 g/ha: 62 g ai/ha; for plant injury at 125 g/ha: 125 g ai/ha
In short: as §1

[4] = test system: oilseed rape (Brassica napus); settings: scale 0 to 100, read-out: Plant response rating, Oilseed Rape; for plant injury at 16 g/ha: 16 g ai/ha; for plant injury at 31 g/ha: 31 g ai/ha; for plant injury at 62 g/ha: 62 g ai/ha; for plant injury at 125 g/ha: 125 g ai/ha
In short: as §1

[5] = test system: pigweed (Amaranthus retroflexus); settings: scale 0 to 100, read-out: Plant response rating, Pigweed; for pest or weed control at 16 g/ha: 16 g ai/ha; for pest or weed control at 31 g/ha: 31 g ai/ha; for pest or weed control at 62 g/ha: 62 g ai/ha; for pest or weed control at 125 g/ha: 125 g ai/ha
In short: as §1

[6] = test system: field violet (Viola arvensis); settings: scale 0 to 100, read-out: Plant response rating, Field Violet; for pest or weed control at 16 g/ha: 16 g ai/ha; for pest or weed control at 31 g/ha: 31 g ai/ha; for pest or weed control at 62 g/ha: 62 g ai/ha; for pest or weed control at 125 g/ha: 125 g ai/ha
In short: as §1

[7] = test system: green foxtail (Setaria viridis); settings: scale 0 to 100, read-out: Plant response rating, Foxtail, Green; for pest or weed control at 16 g/ha: 16 g ai/ha; for pest or weed control at 31 g/ha: 31 g ai/ha; for pest or weed control at 62 g/ha: 62 g ai/ha; for pest or weed control at 125 g/ha: 125 g ai/ha
In short: as §1

[8] = test system: spring wheat (Triticum aestivum); settings: scale 0 to 100, read-out: Plant response rating, Wheat, Spring; for plant injury at 16 g/ha: 16 g ai/ha; for plant injury at 62 g/ha: 62 g ai/ha; for plant injury at 125 g/ha: 125 g ai/ha
In short: as §1

[9] = test system: chickweed (common chickweed, Stellaria media); settings: scale 0 to 100, read-out: Plant response rating, Chickweed; for pest or weed control at 16 g/ha: 16 g ai/ha; for pest or weed control at 31 g/ha: 31 g ai/ha; for pest or weed control at 62 g/ha: 62 g ai/ha; for pest or weed control at 125 g/ha: 125 g ai/ha
In short: as §1

[10] = test system: galium (catchweed bedstraw, Galium aparine); settings: scale 0 to 100, read-out: Plant response rating, Galium; for pest or weed control at 16 g/ha: 16 g ai/ha; for pest or weed control at 31 g/ha: 31 g ai/ha; for pest or weed control at 62 g/ha: 62 g ai/ha; for pest or weed control at 125 g/ha: 125 g ai/ha
In short: as §1

In the case of `Fc1cccc(Oc2ncc(Cl)cn2)c1-c1cc(C(F)(F)F)on1` [Compound 168, 5-chloro-2-[2-[5-(trifluoromethyl)-3-isoxazolyl]-3-fluorophenoxy]pyrimidine], the pest or weed control at 16 g/ha ([1]; post-emergence, Postemergence) is reported as 5%, the pest or weed control at 31 g/ha ([1]; post-emergence, Postemergence) is reported as 10% and the pest or weed control at 62 g/ha ([1]; post-emergence, Postemergence) is reported as 20%. It also gave a pest or weed control at 125 g/ha ([1]; post-emergence, Postemergence) of 25%, a pest or weed control at 16 g/ha ([1]; pre-emergence, Preemergence) of 0% and a pest or weed control at 31 g/ha ([1]; pre-emergence, Preemergence) of 0%. For the same compound, the pest or weed control at 62 g/ha ([1]; pre-emergence, Preemergence) was 30%, the pest or weed control at 125 g/ha ([1]; pre-emergence, Preemergence) was 75% and the pest or weed control at 16 g/ha ([2]; post-emergence, Postemergence) was 75%. For the same compound, the pest or weed control at 31 g/ha ([2]; post-emergence, Postemergence) was 85%, the pest or weed control at 62 g/ha ([2]; post-emergence, Postemergence) was 90% and the pest or weed control at 125 g/ha ([2]; post-emergence, Postemergence) was 95%. For the same compound, the pest or weed control at 16 g/ha ([2]; pre-emergence, Preemergence) was 45%, the pest or weed control at 31 g/ha ([2]; pre-emergence, Preemergence) was 100% and the pest or weed control at 62 g/ha ([2]; pre-emergence, Preemergence) was 100%. It also gave a pest or weed control at 125 g/ha ([2]; pre-emergence, Preemergence) of 100%, a plant injury at 16 g/ha ([3]; post-emergence, Postemergence) of 5% and a plant injury at 31 g/ha ([3]; post-emergence, Postemergence) of 10%. It also gave a plant injury at 62 g/ha ([3]; post-emergence, Postemergence) of 10%, a plant injury at 125 g/ha ([3]; post-emergence, Postemergence) of 15% and a plant injury at 16 g/ha ([3]; pre-emergence, Preemergence) of 0%. The plant injury at 31 g/ha ([3]; pre-emergence, Preemergence) was 5%, the plant injury at 62 g/ha ([3]; pre-emergence, Preemergence) was 25% and the plant injury at 125 g/ha ([3]; pre-emergence, Preemergence) was 40%. It also gave a plant injury at 16 g/ha ([4]; post-emergence, Postemergence) of 70%, a plant injury at 31 g/ha ([4]; post-emergence, Postemergence) of 85% and a plant injury at 62 g/ha ([4]; post-emergence, Postemergence) of 95%. It also gave a plant injury at 125 g/ha ([4]; post-emergence, Postemergence) of 100%, a plant injury at 16 g/ha ([4]; pre-emergence, Preemergence) of 10% and a plant injury at 31 g/ha ([4]; pre-emergence, Preemergence) of 40%. For the same compound, the plant injury at 62 g/ha ([4]; pre-emergence, Preemergence) was 65%, the plant injury at 125 g/ha ([4]; pre-emergence, Preemergence) was 100% and the pest or weed control at 16 g/ha ([5]; post-emergence, Postemergence) was 90%. For the same compound, the pest or weed control at 31 g/ha ([5]; post-emergence, Postemergence) was 80%, the pest or weed control at 62 g/ha ([5]; post-emergence, Postemergence) was 95% and the pest or weed control at 125 g/ha ([5]; post-emergence, Postemergence) was 95%. The pest or weed control at 16 g/ha ([5]; pre-emergence, Preemergence) was 55%, the pest or weed control at 31 g/ha ([5]; pre-emergence, Preemergence) was 100% and the pest or weed control at 62 g/ha ([5]; pre-emergence, Preemergence) was 100%. For the same compound, the pest or weed control at 125 g/ha ([5]; pre-emergence, Preemergence) was 100%, the pest or weed control at 16 g/ha ([6]; post-emergence, Postemergence) was 75% and the pest or weed control at 31 g/ha ([6]; post-emergence, Postemergence) was 75%. For the same compound, the pest or weed control at 62 g/ha ([6]; post-emergence, Postemergence) was 90%, the pest or weed control at 125 g/ha ([6]; post-emergence, Postemergence) was 95% and the pest or weed control at 16 g/ha ([6]; pre-emergence, Preemergence) was 85%. For the same compound, the pest or weed control at 31 g/ha ([6]; pre-emergence, Preemergence) was 100%, the pest or weed control at 62 g/ha ([6]; pre-emergence, Preemergence) was 100% and the pest or weed control at 125 g/ha ([6]; pre-emergence, Preemergence) was 100%. It also gave a pest or weed control at 16 g/ha ([7]; post-emergence, Postemergence) of 20%, a pest or weed control at 31 g/ha ([7]; post-emergence, Postemergence) of 60% and a pest or weed control at 62 g/ha ([7]; post-emergence, Postemergence) of 60%. It also gave a pest or weed control at 125 g/ha ([7]; post-emergence, Postemergence) of 75%, a pest or weed control at 16 g/ha ([7]; pre-emergence, Preemergence) of 10% and a pest or weed control at 31 g/ha ([7]; pre-emergence, Preemergence) of 100%. It also gave a pest or weed control at 62 g/ha ([7]; pre-emergence, Preemergence) of 100%, a pest or weed control at 125 g/ha ([7]; pre-emergence, Preemergence) of 100% and a plant injury at 16 g/ha ([8]; post-emergence, Postemergence) of 10%. For the same compound, the plant injury at 31 g/ha ([8]; post-emergence, 31 g ai/ha, Postemergence) was 20%, the plant injury at 62 g/ha ([8]; post-emergence, Postemergence) was 25% and the plant injury at 125 g/ha ([8]; post-emergence, Postemergence) was 40%. It also gave a plant injury at 16 g/ha ([8]; pre-emergence, Preemergence) of 15%, a plant injury at 62 g/ha ([8]; pre-emergence, Preemergence) of 20% and a plant injury at 125 g/ha ([8]; pre-emergence, Preemergence) of 30%. For the same compound, the pest or weed control at 16 g/ha ([9]; post-emergence, Postemergence) was 50%, the pest or weed control at 31 g/ha ([9]; post-emergence, Postemergence) was 45% and the pest or weed control at 62 g/ha ([9]; post-emergence, Postemergence) was 70%. For the same compound, the pest or weed control at 125 g/ha ([9]; post-emergence, Postemergence) was 90%, the pest or weed control at 16 g/ha ([9]; pre-emergence, Preemergence) was 100% and the pest or weed control at 31 g/ha ([9]; pre-emergence, Preemergence) was 80%. For the same compound, the pest or weed control at 62 g/ha ([9]; pre-emergence, Preemergence) was 100%, the pest or weed control at 125 g/ha ([9]; pre-emergence, Preemergence) was 100% and the pest or weed control at 16 g/ha ([10]; post-emergence, Postemergence) was 75%. The pest or weed control at 31 g/ha ([10]; post-emergence, Postemergence) was 75%, the pest or weed control at 62 g/ha ([10]; post-emergence, Postemergence) was 80% and the pest or weed control at 125 g/ha ([10]; post-emergence, Postemergence) was 85%. The pest or weed control at 16 g/ha ([10]; pre-emergence, Preemergence) was 60%, the pest or weed control at 31 g/ha ([10]; pre-emergence, Preemergence) was 60% and the pest or weed control at 62 g/ha ([10]; pre-emergence, Preemergence) was 100%. For the same compound, the pest or weed control at 125 g/ha ([10]; pre-emergence, Preemergence) was 100%.
